Assay results: the supplement of paper PMC8960247
Counter-ions that a name gives are not always drawn. ± gives the standard error.

Legend:
[1] = system: 621-102 (TSC2-deficient); assay: relative viability vs DMSO; higher = less cytotoxic; settings: serum: 10% FBS, 72 h
[2] = system: 621-103 (TSC2-rescued); assay: as above; settings: serum: 10% FBS, 72 h
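Note: immortalized renal angiomyolipoma cells stably carrying empty vector or TSC2, dosed in 384-well plates in DMEM, viability normalized to vehicle-treated wells within each plate.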

SMILES	relative viability ([1]; 0.0001 µM)	relative viability ([1]; 0.001 µM)	relative viability ([1]; 0.01 µM)	relative viability ([1]; 0.1 µM)	relative viability ([1]; 1 µM)	relative viability ([1]; 10 µM)	relative viability ([2]; 0.0001 µM)	relative viability ([2]; 0.001 µM)	relative viability ([2]; 0.01 µM)	relative viability ([2]; 0.1 µM)	relative viability ([2]; 1 µM)	relative viability ([2]; 10 µM)
COc1ccc(-c2cc3c(C)nc(N)nc3n([C@H]3CC[C@H](OCCO)CC3)c2=O)cn1	101 ± 5.6%	110 ± 2.5%	91.2 ± 5%	65.6 ± 0.94%	26.7 ± 0.68%	14.1 ± 0.26%	92.8 ± 1.8%	98.4 ± 2.6%	88.1 ± 2.7%	56.7 ± 2%	30.52 ± 0.21%	18.61 ± 0.18%
C[C@@](Cc1ccc(O)c(O)c1)(NN)C(=O)O [Carbidopa]	97.3 ± 3.2%	104 ± 5.4%	90.03 ± 0.71%	103 ± 1.6%	99.6 ± 2.6%	89.7 ± 1.3%	92 ± 1.9%	103.2 ± 0.12%	93.7 ± 2.5%	107 ± 2.1%	104 ± 4.8%	92.1 ± 1.4%
Nc1nc(N)c2nc(-c3cccc(O)c3)c(-c3cccc(O)c3)nc2n1 [TG100-115]	98.9 ± 7.9%	105 ± 4.8%	110.59 ± 0.023%	112 ± 1.9%	111 ± 5.8%	95.6 ± 3.2%	99.62 ± 0.33%	99.8 ± 1.2%	106 ± 4.6%	99.3 ± 0.84%	99.5 ± 1.8%	100.3 ± 1%
CC(C)n1c(/C=C/C(O)CC(O)CC(=O)O)c(-c2ccc(F)cc2)c2ccccc21 (stereo not given) [Fluvastatin Sodium]	102 ± 1.5%	106 ± 3.3%	105 ± 1.1%	101 ± 3.1%	100 ± 2.8%	73.38 ± 0.72%	102 ± 2.2%	95.8 ± 2.6%	99.5 ± 4.6%	100 ± 2.1%	71.8 ± 4.7%	32.19 ± 0.096%
Cc1cc(C(C)Nc2ccccc2)c2nc(N3CCOCC3)cc(=O)n2c1 (stereo not given) [TGX-221]	94.1 ± 1.7%	106 ± 7.4%	114 ± 3.3%	112 ± 3.6%	114 ± 4%	101 ± 1.8%	98.3 ± 0.45%	98.8 ± 0.21%	97.7 ± 2%	98.8 ± 1.6%	99.4 ± 1.5%	102 ± 1.8%
COc1cc(OC)c(NC(=O)Nc2cc(C)on2)cc1Cl	83.6 ± 4.5%	92 ± 5%	97.3 ± 3.8%	89.4 ± 4.5%	96.7 ± 7%	92.8 ± 3.9%	113 ± 2.2%	109 ± 3.5%	105 ± 3.8%	113 ± 2.9%	109 ± 2.6%	111 ± 2.2%
FC(F)c1nc2ccccc2n1-c1nc(N2CCOCC2)nc(N2CCOCC2)n1 [ZSTK474]	88.8 ± 4.7%	94.9 ± 1.6%	89.77 ± 0.68%	95.7 ± 2%	91.2 ± 3.4%	52.1 ± 1.8%	101 ± 2.4%	97 ± 3.6%	103.8 ± 0.79%	105.3 ± 0.49%	96.3 ± 2.2%	49.6 ± 1.3%
O=S(=O)(c1cccc2cnccc12)N1CCCNCC1 [Fasudil HCl]	95.7 ± 1.9%	111.14 ± 0.069%	100 ± 7.1%	107.7 ± 0.97%	110 ± 3.2%	83.5 ± 3.1%	102 ± 2.1%	98.11 ± 0.26%	99.94 ± 0.62%	97.3 ± 1.3%	97.052 ± 0.09%	101.9 ± 0.26%
O=c1cc(-c2ccc(O)c(O)c2)oc2cc(O)cc(O)c12 [Luteolin (Luteolol)]	108.1 ± 0.74%	104 ± 2.9%	104.7 ± 0.25%	100 ± 3%	105.3 ± 0.74%	101.9 ± 0.18%	107.6 ± 0.4%	103 ± 3.2%	102 ± 1.6%	100 ± 3.7%	108 ± 4.5%	92.4 ± 2%
S=C(NCc1ccc2c(c1)OCO2)N1CCN(c2ncnc3c2oc2ccccc23)CC1 [MP-470]	105 ± 1.2%	116 ± 4.3%	112 ± 2.3%	125 ± 1.3%	118 ± 4.8%	116.2 ± 0.7%	88.5 ± 5.1%	104 ± 1.4%	103.8 ± 0.57%	106 ± 1.4%	105.95 ± 0.02%	112 ± 3.2%
CC(=O)NC[C@H]1CN(c2ccc(N3CCOCC3)c(F)c2)C(=O)O1 [Linezolid]	99.5 ± 7.5%	108 ± 2.5%	102.8 ± 0.25%	105 ± 2.2%	102 ± 4.4%	101.1 ± 0.19%	105 ± 5.3%	110 ± 4.4%	98.2 ± 2.4%	101 ± 0.73%	103 ± 1.3%	104 ± 3%
CC(=O)c1c(C)c2cnc(Nc3ccc(N4CCNCC4)cn3)nc2n(C2CCCC2)c1=O	103 ± 1.6%	109.7 ± 0.24%	110 ± 2.1%	109 ± 5%	115 ± 1.2%	79 ± 4.2%	102.3 ± 0.35%	104.8 ± 0.95%	100.9 ± 0.84%	104.4 ± 0.59%	106.6 ± 0.72%	76.7 ± 1.6%
O=C(c1cc(Cc2n[nH]c(=O)c3ccccc23)ccc1F)N1CCN(C(=O)C2CC2)CC1 [AZD2281 (Olaparib)]	120 ± 2.1%	129 ± 5.5%	125 ± 5.6%	120 ± 2.8%	114.2 ± 0.69%	81.75 ± 0.48%	104 ± 1.5%	103 ± 1.7%	104.6 ± 0.91%	99.6 ± 3.1%	104 ± 1.5%	98.4 ± 4.5%
COc1cc(Nc2ncc(F)c(Nc3ccc4c(n3)N(COP(=O)(O)O)C(=O)C(C)(C)O4)n2)cc(OC)c1OC	111.5 ± 1.1%	107.4 ± 0.97%	106.9 ± 0.48%	94.91 ± 0.5%	87.5 ± 2%	57.13 ± 0.27%	103 ± 1.3%	104.7 ± 0.53%	101 ± 1.2%	102 ± 5%	78.9 ± 2.7%	14.7 ± 0.48%
Cc1cc(Nc2nc(N[C@@H](C)c3ncc(F)cn3)ncc2Cl)[nH]n1 [AZD1480]	104 ± 2.1%	101.7 ± 0.92%	104 ± 1.7%	100.8 ± 0.59%	103 ± 3.8%	87.7 ± 1.2%	97.89 ± 0.31%	89.6 ± 1.1%	86.7 ± 3.9%	92.2 ± 2.8%	89.4 ± 2.6%	53.6 ± 1.4%
CN(C)Cc1cccc(N=C(c2ccccc2)c2c(O)[nH]c3cc(C(=O)N(C)C)ccc23)c1	107 ± 1.5%	106 ± 1.2%	102 ± 1.4%	100.76 ± 0.028%	98.5 ± 6.6%	93.3 ± 1.4%	98.05 ± 0.44%	99.6 ± 1.7%	98.8 ± 1.2%	99.48 ± 0.73%	91.7 ± 5.7%	47.4 ± 2.2%
CC(=O)Nc1ccccc1 [Acetanilide]	87.9 ± 1.9%	111 ± 0.29%	109 ± 2.3%	92 ± 3%	113 ± 3.1%	104 ± 1.7%	104 ± 1.9%	102 ± 4.6%	106.2 ± 0.32%	101 ± 4.2%	103 ± 2.6%	91.3 ± 1.3%
Cc1cc(Nc2cc(N3CCN(C)CC3)nc(/C=C/c3ccccc3)n2)n[nH]1 [ENMD-2076]	112 ± 2.8%	98.5 ± 1.7%	103.4 ± 0.19%	98.213 ± 0.069%	81.1 ± 2.8%	34.56 ± 0.15%	100.4 ± 0.78%	100.9 ± 0.97%	104 ± 1.5%	102 ± 2.1%	73 ± 2.3%	12.7 ± 0.4%
Cc1ccc(S(=O)(=O)OCC(=O)Nc2ccc(C(=O)O)c(O)c2)cc1 [S31-201]	119.8 ± 0.59%	125 ± 1.4%	123 ± 3.5%	121 ± 3.3%	112 ± 1.6%	119.2 ± 0.71%	99.4 ± 2%	98.17 ± 0.7%	104 ± 2.1%	102.7 ± 0.83%	100 ± 1.8%	101 ± 1.9%
CCN1CCCC1CNC(=O)c1cc(S(=O)(=O)CC)c(N)cc1OC (stereo not given) [Amisulpride]	111 ± 3.8%	100 ± 1.3%	104.3 ± 0.84%	105 ± 3%	107.5 ± 0.4%	110 ± 1.6%	104 ± 1.8%	105 ± 2.5%	110.7 ± 0.99%	103.5 ± 0.35%	113 ± 4.8%	114 ± 3.6%
